Results on 12 compounds are retold here after patent publication US20260028326A1, “COMPOUND BASED ON ISOINDOLINE-SUBSTITUTED GLUTARIMIDE BACKBONE AND USE THEREOF” (GLUETACS THERAPEUTICS (SHANGHAI) CO., LTD., priority 2022, published 2026).

Experiment [1] addresses human Cereblon WT GST-tagged protein (Homo sapiens (Human), UniProt Q96SW2). The experiment in a line: CRBN-binding affinity, HTRF (CEREBLON BINDING kit). The gist of the method: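 GST-tagged human WT Cereblon incubated with compound, then Thalidomide-Re tracer and anti-GST Eu antibody added. Displacement read by HTRF, reported as CRBN binding inhibition rate against blank control wells without protein.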

For the next experiment, the target named is IKZF1 protein (Homo sapiens (Human), UniProt Q13422+Q96SW2). Nature of the experiment: Western-blot assay of substrate protein degradation in hPBMC, IKZF1. The note with it: for residual substrate protein level, IKZF1: hPBMC cells, compound 500 nM, 24 hours, Western blot. Type of experiment: cell-based. Background: Immunoblotting shows a protein as a band on a membrane.
Chain of IKZF1 protein (Q13422 whole entry): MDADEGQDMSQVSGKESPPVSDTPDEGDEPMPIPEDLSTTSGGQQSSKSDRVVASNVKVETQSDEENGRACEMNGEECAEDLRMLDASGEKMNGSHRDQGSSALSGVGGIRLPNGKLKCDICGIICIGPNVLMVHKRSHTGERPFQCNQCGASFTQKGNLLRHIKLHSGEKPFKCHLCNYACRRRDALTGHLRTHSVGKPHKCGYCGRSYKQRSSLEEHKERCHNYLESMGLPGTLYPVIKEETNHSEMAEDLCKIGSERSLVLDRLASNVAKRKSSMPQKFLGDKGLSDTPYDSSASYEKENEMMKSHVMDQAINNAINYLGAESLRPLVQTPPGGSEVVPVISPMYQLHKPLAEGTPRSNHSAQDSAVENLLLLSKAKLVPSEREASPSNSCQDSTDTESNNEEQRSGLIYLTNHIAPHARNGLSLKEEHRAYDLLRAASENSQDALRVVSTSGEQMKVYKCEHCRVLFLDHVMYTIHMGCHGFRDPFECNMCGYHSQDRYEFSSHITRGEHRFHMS
Chain of IKZF1 protein (Q96SW2 whole entry): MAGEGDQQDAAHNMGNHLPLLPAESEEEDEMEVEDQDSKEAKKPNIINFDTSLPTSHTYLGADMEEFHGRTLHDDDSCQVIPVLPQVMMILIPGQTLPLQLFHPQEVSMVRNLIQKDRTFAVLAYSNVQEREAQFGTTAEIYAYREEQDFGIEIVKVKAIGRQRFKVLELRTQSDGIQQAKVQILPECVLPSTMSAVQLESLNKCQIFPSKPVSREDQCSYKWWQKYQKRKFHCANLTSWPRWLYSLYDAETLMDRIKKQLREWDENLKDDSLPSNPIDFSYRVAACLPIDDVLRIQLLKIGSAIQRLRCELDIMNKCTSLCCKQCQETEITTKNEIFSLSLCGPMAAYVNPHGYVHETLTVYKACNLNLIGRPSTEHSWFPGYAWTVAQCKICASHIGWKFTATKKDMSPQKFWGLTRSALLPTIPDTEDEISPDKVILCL
Chain of IKZF1 protein (Q16531 whole entry partner): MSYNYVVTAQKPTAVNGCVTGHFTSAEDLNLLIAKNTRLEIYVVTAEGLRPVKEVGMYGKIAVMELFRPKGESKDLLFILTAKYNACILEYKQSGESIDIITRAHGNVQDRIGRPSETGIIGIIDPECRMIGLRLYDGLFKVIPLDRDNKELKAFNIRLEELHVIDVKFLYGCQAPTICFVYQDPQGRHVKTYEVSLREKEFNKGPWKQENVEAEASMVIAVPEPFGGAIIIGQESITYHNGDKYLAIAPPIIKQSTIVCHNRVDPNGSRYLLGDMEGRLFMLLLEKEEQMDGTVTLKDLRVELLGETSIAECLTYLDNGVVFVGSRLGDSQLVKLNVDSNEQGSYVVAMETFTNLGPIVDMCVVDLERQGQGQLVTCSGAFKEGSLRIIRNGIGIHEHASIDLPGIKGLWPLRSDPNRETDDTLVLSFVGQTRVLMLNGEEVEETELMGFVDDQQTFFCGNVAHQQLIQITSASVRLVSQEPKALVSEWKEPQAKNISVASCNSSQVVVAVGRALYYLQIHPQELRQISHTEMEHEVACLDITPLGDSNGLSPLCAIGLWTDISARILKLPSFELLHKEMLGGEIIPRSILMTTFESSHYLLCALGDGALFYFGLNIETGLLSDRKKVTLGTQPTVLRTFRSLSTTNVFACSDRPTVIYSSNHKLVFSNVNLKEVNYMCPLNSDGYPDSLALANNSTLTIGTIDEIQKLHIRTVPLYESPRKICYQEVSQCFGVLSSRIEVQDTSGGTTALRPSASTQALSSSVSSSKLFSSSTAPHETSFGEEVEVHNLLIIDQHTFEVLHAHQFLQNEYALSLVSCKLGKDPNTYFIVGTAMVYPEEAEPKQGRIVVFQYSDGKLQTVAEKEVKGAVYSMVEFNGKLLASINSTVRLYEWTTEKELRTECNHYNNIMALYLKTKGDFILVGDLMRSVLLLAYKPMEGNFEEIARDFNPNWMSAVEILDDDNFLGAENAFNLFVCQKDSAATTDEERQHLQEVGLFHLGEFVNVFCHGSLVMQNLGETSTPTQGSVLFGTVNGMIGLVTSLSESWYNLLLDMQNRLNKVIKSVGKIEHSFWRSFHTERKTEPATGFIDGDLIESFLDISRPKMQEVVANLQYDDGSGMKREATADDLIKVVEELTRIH

For a further experiment, the target named is IKZF3 protein (Homo sapiens (Human), UniProt Q96SW2+Q9UKT9). The experiment in a line: Western-blot assay of substrate protein degradation in hPBMC, IKZF3. It is filed as cell-based. The note with it: for residual substrate protein level, IKZF3: hPBMC cells, compound 500 nM, 24 hours, Western blot.
Chain of IKZF3 protein (Q9UKT9 whole entry): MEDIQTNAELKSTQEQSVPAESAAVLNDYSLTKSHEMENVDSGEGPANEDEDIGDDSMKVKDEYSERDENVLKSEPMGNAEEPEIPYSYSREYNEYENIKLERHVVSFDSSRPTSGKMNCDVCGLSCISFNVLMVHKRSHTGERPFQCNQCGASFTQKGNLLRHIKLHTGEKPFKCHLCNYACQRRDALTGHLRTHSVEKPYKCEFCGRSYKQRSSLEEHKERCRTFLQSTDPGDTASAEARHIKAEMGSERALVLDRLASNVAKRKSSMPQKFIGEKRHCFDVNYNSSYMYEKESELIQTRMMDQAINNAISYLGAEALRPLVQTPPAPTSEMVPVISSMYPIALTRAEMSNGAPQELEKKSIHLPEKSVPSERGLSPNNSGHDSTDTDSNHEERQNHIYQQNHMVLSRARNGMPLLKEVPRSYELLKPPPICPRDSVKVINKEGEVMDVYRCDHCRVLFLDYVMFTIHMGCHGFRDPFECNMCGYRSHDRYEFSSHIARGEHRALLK
Chain of IKZF3 protein (Q96SW2 whole entry): as the sequence (Q96SW2 whole entry) above
Chain of IKZF3 protein (Q16531 whole entry partner): as the sequence (Q16531 whole entry partner) above
The target in the next experiment is GSPT1 protein (Homo sapiens (Human), UniProt P15170+Q96SW2). Nature of the experiment: Western-blot assay of substrate protein degradation in hPBMC, GSPT1. It is filed as cell-based. The settings on record: for residual substrate protein level, GSPT1: hPBMC cells, compound 500 nM, 24 hours, Western blot.
Chain of GSPT1 protein (P15170 whole entry): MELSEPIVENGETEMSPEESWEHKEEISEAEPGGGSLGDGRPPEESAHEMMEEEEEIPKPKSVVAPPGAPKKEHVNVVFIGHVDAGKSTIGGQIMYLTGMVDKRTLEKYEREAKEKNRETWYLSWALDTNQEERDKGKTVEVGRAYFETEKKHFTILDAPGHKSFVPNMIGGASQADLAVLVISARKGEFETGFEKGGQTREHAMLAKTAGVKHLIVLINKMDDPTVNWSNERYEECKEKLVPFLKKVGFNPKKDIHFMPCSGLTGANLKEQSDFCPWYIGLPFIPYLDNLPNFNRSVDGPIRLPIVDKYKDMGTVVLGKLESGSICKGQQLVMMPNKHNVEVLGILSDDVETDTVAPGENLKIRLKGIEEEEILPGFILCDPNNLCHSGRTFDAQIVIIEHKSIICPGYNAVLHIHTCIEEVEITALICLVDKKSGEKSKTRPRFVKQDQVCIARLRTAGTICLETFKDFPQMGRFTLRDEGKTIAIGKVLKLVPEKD
Chain of GSPT1 protein (Q96SW2 whole entry): as the sequence (Q96SW2 whole entry) above
Chain of GSPT1 protein (Q16531 whole entry partner): as the sequence (Q16531 whole entry partner) above
In another experiment the test system is Mino cells. The experiment in a line: Tumor cell proliferation IC50 (CCK-8), Mino.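 Further: cell viability assessed with CCK-8 reagent after compound exposure, IC50 derived from plotted growth inhibition curves.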 The settings on record: Homo sapiens, 72 h, read-out: IC50 for inhibiting the proliferation of tumor cells, Mino.
Another experiment concerns MM.1S cells. Nature of the experiment: Tumor cell proliferation IC50 (CCK-8), MM.1S.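 Further: viability of cultured cells read by CCK-8 reagent after compound exposure, growth inhibition curves fitted to derive IC50.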 The settings on record: Homo sapiens, MM1.S, 72 h, read-out: IC50 for inhibiting the proliferation of tumor cells, MM.1S.
In another experiment the test system is Daudi cells. The experiment in a line: Tumor cell proliferation IC50 (CCK-8), Daudi.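 Further: cell viability read with CCK-8 reagent after compound exposure of Daudi cells, IC50 derived from plotted growth inhibition curves.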 The settings on record: Homo sapiens, read-out: IC50 for inhibiting the proliferation of tumor cells, Daudi.
In the next experiment the test system is CCRF-CEM cells. Nature of the experiment: Tumor cell proliferation IC50 (CCK-8), CCRF-CEM.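 Further: cell viability measured with CCK-8 reagent after compound treatment, IC50 taken from plotted growth inhibition curves.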 The settings on record: Homo sapiens, 96 h, read-out: IC50 for inhibiting the proliferation of tumor cells, CCRF-CEM.
[2] abbreviates: hPBMC, 24 h, serially diluted 0.03-1000 nM.

Chain of human Cereblon WT GST-tagged protein (Q96SW2 whole entry): as the sequence (Q96SW2 whole entry) above
Method for MM.1S cells: (§1) The tumor cells used herein were cultured in a cell culture medium listed in table A at 37° C. in an incubator with 5% CO2.
(§2) After the cells were treated with the compounds of the present disclosure for a period of time, the cell viability detection reagent was added to the culture medium for cell viability assessment according to the instructions provided with the CCK-8 kit. […] The growth inhibition of the compounds of the present disclosure on cells was plotted by Prism Graphpad software, and the IC50 values of the compounds of the present disclosure were calculated therefrom.
Method for Mino cells: as §1, §2

With `CC1(C)CCC(CN2CCN(Cc3ccc4c(c3)CN(C3CCC(=O)NC3=O)C4=O)CC2)=C(c2cccs2)C1` (centres unmarked) [GT-05847, 3-(5-((4-((4,4-dimethyl-2-(thiophen-2-yl)cyclohex-1-en-1-yl)methyl)piperazin-1-yl)methyl)-1-oxoisoindolin-2-yl)piperidine-2,6-dione], the IC50 in experiment [1] was 1000 nM; in the experiment with Mino cells, under 5 nM; in the experiment on MM.1S cells it was under 5 nM; in the experiment on Daudi cells, 10 to 50 nM; in the experiment on CCRF-CEM cells it was under 5 nM. On IKZF1 protein, the “residual substrate protein level, IKZF1” value is recorded as “A (A represents a residual substrate protein level of <50%)”. In addition, at IKZF3 protein, the “residual substrate protein level, IKZF3” value is “A (A represents a residual substrate protein level of <50%)”. Also, at GSPT1 protein, the “residual substrate protein level, GSPT1” value was “A (A represents a residual substrate protein level of <50%)”.

Turning to `O=C1CCC(N2C(=O)c3ccc(CN4CCN(Cc5ccc(-c6ccc(Cl)cc6)s5)CC4)cc3C2=O)C(=O)N1` (centres unmarked) [GT-05626, 5-((4-((5-(4-chlorophenyl)thiophen-2-yl)methyl)piperazin-1-yl)methyl)-2-(2,6-dioxopiperidin-3-yl)isoindoline-1,3-dione], the “residual substrate protein level, IKZF1” value at IKZF1 protein is given as “B (B represents a residual substrate protein level of >50%)”. Also, on IKZF3 protein, the “residual substrate protein level, IKZF3” value was “B (B represents a residual substrate protein level of >50%)”. On GSPT1 protein, the “residual substrate protein level, GSPT1” value was “B (B represents a residual substrate protein level of >50%)”. Also, the IC50 with Mino cells, in the experiment with Daudi cells and with CCRF-CEM cells was 500 to 1000 nM in each case.

Consider `O=C1CCC(N2Cc3cc(CN4CCN(Cc5ccccc5-c5ccco5)CC4)ccc3C2=O)C(=O)N1` (centres unmarked) [GT-05779, 3-(5-((4-(2-(furan-2-yl)benzyl)piperazin-1-yl)methyl)-1-oxoisoindolin-2-yl)piperidine-2,6-dione], for which the IC50 was 430 nM in experiment [1]; 5 to 10 nM in the experiment on Mino cells; 5 to 10 nM in the experiment on MM.1S cells; 50 to 100 nM in the experiment on Daudi cells; 5 to 10 nM with CCRF-CEM cells. Besides, on IKZF1 protein, the “residual substrate protein level, IKZF1” value is listed as “A (A represents a residual substrate protein level of <50%)”. Also, at IKZF3 protein, the “residual substrate protein level, IKZF3” value is “A (A represents a residual substrate protein level of <50%)”. Besides, the “residual substrate protein level, GSPT1” value at GSPT1 protein was “A (A represents a residual substrate protein level of <50%)”.

Regarding `Cn1cccc1-c1ccccc1CN1CCN(Cc2ccc3c(c2)CN(C2CCC(=O)NC2=O)C3=O)CC1` (centres unmarked) [GT-05683, 3-(5-((4-(2-(1-methyl-1H-pyrrol-2-yl)benzyl)piperazin-1-yl)methyl)-1-oxoisoindolin-2-yl)piperidine-2,6-dione], the IC50 is 750 nM in experiment [1]; 10 to 50 nM in the experiment on Mino cells; 5 to 10 nM in the experiment on MM.1S cells; 50 to 100 nM in the experiment on Daudi cells; 5 to 10 nM with CCRF-CEM cells.

For `CC1(C)CCC(C(=O)N2CC3(CN(Cc4ccc5c(c4)CN(C4CCC(=O)NC4=O)C5=O)C3)C2)=C(c2ccc(F)cc2)C1` (centres unmarked) [GT-05664, 3-(5-((6-(4′-fluoro-5,5-dimethyl-3,4,5,6-tetrahydro-[1,1′-biphenyl]-2-carbonyl)-2,6-diazaspiro[3.3]heptan-2-yl)methyl)-1-oxoisoindolin-2-yl)piperidine-2,6-dione], the IC50 in experiment [1] is 560 nM; in the experiment with Mino cells it was 10 to 50 nM; with MM.1S cells it was 10 to 50 nM; in the experiment with Daudi cells, 100 to 500 nM; in the experiment with CCRF-CEM cells, 10 to 50 nM. In addition, on IKZF1 protein, the “residual substrate protein level, IKZF1” value is “A (A represents a residual substrate protein level of <50%)”. The “residual substrate protein level, IKZF3” value at IKZF3 protein is “A (A represents a residual substrate protein level of <50%)”. Besides, the “residual substrate protein level, GSPT1” value at GSPT1 protein was “A (A represents a residual substrate protein level of <50%)”.

As for `O=C1CCC(N2Cc3cc(CN4CCN(Cc5ccc(-c6ccc(Cl)cc6)cc5)CC4)ccc3C2=O)C(=O)N1` (centres unmarked) [GT-05598, 3-(5-((4-((4′-chloro-[1,1′-biphenyl]-4-yl)methyl)piperazin-1-yl)methyl)-1-oxoisoindolin-2-yl)piperidine-2,6-dione], the IC50 was 680 nM in experiment [1]; 10 to 50 nM in the experiment with Mino cells; 50 to 100 nM in the experiment with MM.1S cells; 500 to 1000 nM in the experiment on Daudi cells; 500 to 1000 nM in the experiment on CCRF-CEM cells. The “residual substrate protein level, IKZF1” value on IKZF1 protein is listed as “A (A represents a residual substrate protein level of <50%)”. Also, the “concentration at which significant degradation effects on IKZF1 protein are exhibited (FIG. 1)” value at IKZF1 protein (setting [2]) is recorded as under 3 nM. The “residual substrate protein level, IKZF3” value on IKZF3 protein is reported as “A (A represents a residual substrate protein level of <50%)”. The “concentration at which significant degradation effects on IKZF3 protein are exhibited (FIG. 1)” value on IKZF3 protein (setting [2]) is recorded as under 3 nM. For the same compound, the “residual substrate protein level, GSPT1” value on GSPT1 protein is listed as “B (B represents a residual substrate protein level of >50%)”. Moreover, the “concentration at which significant degradation effects on GSPT1 protein are exhibited (FIG. 1)” value on GSPT1 protein (setting [2]) is on record as under 3 nM.

As to `O=C1CCC(N2Cc3cc(CN4CCN(C(=O)c5ccccc5-c5ccc(Cl)cc5)CC4)c(F)cc3C2=O)C(=O)N1` (centres unmarked) [GT-05650, 3-(5-((4-(4′-chloro-[1,1′-biphenyl]-2-carbonyl)piperazin-1-yl)methyl)-6-fluoro-1-oxoisoindolin-2-yl)piperidine-2,6-dione], the IC50 was 940 nM in experiment [1]; 50 to 100 nM in the experiment on Mino cells; 10 to 50 nM with MM.1S cells; 100 to 500 nM in the experiment on Daudi cells; 10 to 50 nM in the experiment on CCRF-CEM cells. Also, on IKZF1 protein, the “residual substrate protein level, IKZF1” value was “A (A represents a residual substrate protein level of <50%)”. Besides, the “residual substrate protein level, IKZF3” value on IKZF3 protein was “A (A represents a residual substrate protein level of <50%)”. The “residual substrate protein level, GSPT1” value at GSPT1 protein is recorded as “A (A represents a residual substrate protein level of <50%)”.

Regarding `O=C1CCC(N2Cc3c(ccc(CN4CCN(Cc5ccccc5-c5ccc(F)cc5)CC4)c3F)C2=O)C(=O)N1` (centres unmarked) [GT-05602, 3-(4-fluoro-5-((4-((4′-fluoro-[1,1′-biphenyl]-2-yl)methyl)piperazin-1-yl)methyl)-1-oxoisoindolin-2-yl)piperidine-2,6-dione], the IC50 is 560 nM in experiment [1]; under 5 nM in the experiment on Mino cells; under 5 nM in the experiment with MM.1S cells; 5 to 10 nM in the experiment on Daudi cells; under 5 nM with CCRF-CEM cells. The “residual substrate protein level, IKZF1” value at IKZF1 protein is listed as “A (A represents a residual substrate protein level of <50%)”. The “residual substrate protein level, IKZF3” value at IKZF3 protein was “A (A represents a residual substrate protein level of <50%)”. At GSPT1 protein, the “residual substrate protein level, GSPT1” value is on record as “A (A represents a residual substrate protein level of <50%)”.

Take `Cc1ccc(C2=C(CN3CCN(Cc4ccc5c(c4)CN(C4CCC(=O)NC4=O)C5=O)CC3)CCC(C)(C)C2)cc1` (centres unmarked) [GT-05792, 3-(1-oxo-5-((4-((4′,5,5-trimethyl-3,4,5,6-tetrahydro-[1,1′-biphenyl]-2-yl)methyl)piperazin-1-yl)methyl)isoindolin-2-yl)piperidine-2,6-dione]: the IC50 in experiment [1] is 660 nM; in the experiment with Mino cells, 5 to 10 nM; with MM.1S cells, 5 to 10 nM; with Daudi cells it was 50 to 100 nM; in the experiment on CCRF-CEM cells, 5 to 10 nM.

On to `O=C1CCC(N2Cc3cc(NC4CCN(C(=O)c5ccccc5-c5ccc(Cl)cc5)CC4)ccc3C2=O)C(=O)N1` (centres unmarked) [GT-05784, 3-(5-((1-(4′-chloro-[1,1′-biphenyl]-2-carbonyl)piperidin-4-yl)amino)-1-oxoisoindolin-2-yl)piperidine-2,6-dione], for which the IC50 was 620 nM in experiment [1]; under 5 nM in the experiment with Mino cells; under 5 nM in the experiment on MM.1S cells; 10 to 50 nM with Daudi cells; under 5 nM with CCRF-CEM cells.

On to `CC1(C)CC(c2ccc(Cl)cc2)=C(CN2CCN(Cc3ccc4c(c3)CN(C3CCC(=O)NC3=O)C4=O)CC2)CO1` (centres unmarked) [GT-05672, 3-(5-((4-((4-(4-chlorophenyl)-6,6-dimethyl-5,6-dihydro-2H-pyran-3-yl)methyl)piperazin-1-yl)methyl)-1-oxoisoindolin-2-yl)piperidine-2,6-dione], for which the IC50 in experiment [1] is 580 nM; in the experiment on Mino cells it was 10 to 50 nM; with MM.1S cells, 10 to 50 nM; in the experiment with Daudi cells, 500 to 1000 nM. On IKZF1 protein, the “residual substrate protein level, IKZF1” value was “A (A represents a residual substrate protein level of <50%)”. The “residual substrate protein level, IKZF3” value at IKZF3 protein was “A (A represents a residual substrate protein level of <50%)”. Besides, the “residual substrate protein level, GSPT1” value at GSPT1 protein is listed as “A (A represents a residual substrate protein level of <50%)”.

For `O=C1CCC(N2Cc3c(ccc(CN4CCN(CC5=C(c6ccc(F)cc6)CCCC5)CC4)c3F)C2=O)C(=O)N1` (centres unmarked) [GT-05466, 3-(4-fluoro-5-((4-((4′-fluoro-3,4,5,6-tetrahydro-[1,1′-biphenyl]-2-yl)methyl)piperazin-1-yl)methyl)-1-oxoisoindolin-2-yl)piperidine-2,6-dione], the IC50 in experiment [1] is 700 nM; in the experiment on Mino cells it was 10 to 50 nM; in the experiment with MM.1S cells it was 10 to 50 nM; in the experiment with Daudi cells it was 50 to 100 nM. Besides, the “residual substrate protein level, IKZF1” value on IKZF1 protein is on record as “A (A represents a residual substrate protein level of <50%)”. Moreover, the “residual substrate protein level, IKZF3” value at IKZF3 protein was “A (A represents a residual substrate protein level of <50%)”. Besides, on GSPT1 protein, the “residual substrate protein level, GSPT1” value was “A (A represents a residual substrate protein level of <50%)”.
